One may read the IC50 as the point on the concentration scale where inhibition reaches its midpoint. A lower IC50 goes with inhibition by little substance.

Kp, concentration and IC50 data for 19 compounds are collected here from US20240262819A1, “NOVEL COMPOUNDS HAVING INHIBITORY ACTIVITY AGAINST GLUCOSYLCERAMIDE SYNTHASE OR PHARMACEUTICALLY ACCEPTABLE SALT THEREOF, PROCESSES FOR PREPARING THE SAME, AND PHARMACEUTICAL COMPOSITIONS COMPRISING THE SAME” (YUHAN CORPORATION, priority 2021, published 2024).

Like-named read-outs stand apart in the source and are kept apart here.

The nature of series [1]: Evaluation of blood-brain barrier (BBB) permeability through oral administration. Conditions: mouse, in vivo, mice, oral, 4 hr; for Kp at 4 h: read-out: Mean brain-plasma drug ratio at 4 hr. In kind it is in vivo, mice. The procedure: The blood-brain barrier (BBB) permeability was evaluated in mice, with respect to the compounds according to the present invention and the control (ibiglustat). Each compound of the present invention and the control were suspended in 0.5% methyl cellulose containing 0.2% Tween 80 and then orally administered to mice at a dose of 10 or 30 mg/10 ml/kg. After the whole blood was collected from the heart of each mouse at the time of 4 hours after the administration, it was placed in a lithium heparin tube and immediately centrifuged to obtain the plasma. After the exsanguination was carried out through abdominal vena cava incision, the forebrain was taken by dissection of the head. Both of the forebrain and the plasma were stored in a −80° C. freezer until the analysis of drug concentrations therein. For the analysis of drug concentrations therein, the forebrain was immersed in distilled water and then homogenized with a homogenizer to obtain a homogenate. Each plasma and homogenate was treated with acetonitrile to precipitate proteins, vortexed for 15 seconds, and then centrifuged (12700 rpm, 10 min, 4° C.). The obtained supernatant was diluted with an 80% aqueous solution of acetonitrile containing 0.1% formic acid and then analyzed with an LC-MS/MS instrument. LC-MS/MS analysis was carried out with a reversed-phase column, using distilled water containing 0.1% formic acid and acetonitrile as mobile phases. Each eluted material was detected through a mass spectrometer to calculate the drug concentrations thereof. The brain-plasma drug ratio (B/P ratio) was calculated from the drug concentrations in each tissue to evaluate the blood-brain barrier (BBB) permeability.

The test system of series [2] is GM1 production in Jurkat cells. The series can be described thus: cells. In kind it is cell-based. Conditions: Homo sapiens, Jurkat, 72 h.
The mark [3] stands for this setting: dose 30 mg/kg, read-out: Mean drug concentrations in brain tissue at 4 hr.
The mark [4] stands for this setting: dose 30 mg/kg, read-out: Mean drug concentrations in plasma at 4 hr.

Turning to `Cc1cc(-c2ccc3c(c2)CC(C)(C)[C@H]3NC(=O)O[C@@H]2CN3CCC2CC3)cc(C)c1OC(C)C` [Example 10, (S)-quinuclidin-3-yl((R)-5-(4-isopropoxy-3,5-dimethylphenyl)-2,2-dimethyl-2,3-dihydro-1H-inden-1-yl)carbamate], the Kp at 4 h in series [1] (dose 30 mg/kg) amounted to 5.62. Besides, the concentration at 4 h was 6100 ng/g in series [1] (setting [3]) and 1090 ng/mL in series [1] (setting [4]). Further, in series [2], the IC50 came to 0.0103 µM.
As to `CC(C)Oc1ccc(-c2ccc3c(c2)CC(C)(C)[C@H]3NC(=O)O[C@@H]2CN3CCC2CC3)cc1Cl` [Example 11, (S)-quinuclidin-3-yl((R)-5-(3-chloro-4-isopropoxyphenyl)-2,2-dimethyl-2,3-dihydro-1H-inden-1-yl)carbamate], the Kp at 4 h in series [1] (dose 10 mg/kg) was found to be 9.12. Further, the concentration at 4 h is 2410 ng/g in series [1] (dose 10 mg/kg, read-out: Mean drug concentrations in brain tissue at 4 hr) and 265 ng/mL in series [1] (dose 10 mg/kg, read-out: Mean drug concentrations in plasma at 4 hr). Moreover, the IC50 in series [2] was determined as 0.0234 µM.
With `COc1ccc(-c2ccc3c(c2)CC(C)(C)[C@H]3NC(=O)O[C@@H]2CN3CCC2CC3)cc1Cl` [Example 14, (S)-quinuclidin-3-yl((R)-5-(3-chloro-4-methoxyphenyl)-2,2-dimethyl-2,3-dihydro-1H-inden-1-yl)carbamate], in series [1] (dose 30 mg/kg), the Kp at 4 h is 3.92. Moreover, the values for the concentration at 4 h in series [1] (setting [3]) and in series [1] (setting [4]) were 3070 ng/g and 781 ng/mL, respectively. Besides, the IC50 in series [2] came to 0.0489 µM.
As for `CCOc1ccc(-c2ccc3c(c2)CC(C)(C)[C@H]3NC(=O)O[C@@H]2CN3CCC2CC3)cc1Cl` [Example 15, (S)-quinuclidin-3-yl((R)-5-(3-chloro-4-ethoxyphenyl)-2,2-dimethyl-2,3-dihydro-1H-inden-1-yl)carbamate], the Kp at 4 h in series [1] (dose 30 mg/kg) is 4.66. Moreover, the concentration at 4 h was determined as 6030 ng/g in series [1] (setting [3]) and 1290 ng/mL in series [1] (setting [4]). This compound also showed an IC50 in series [2] of 0.0405 µM.
For `CCCOc1ccc(-c2ccc3c(c2)CC(C)(C)[C@H]3NC(=O)O[C@@H]2CN3CCC2CC3)cc1Cl` [Example 16, (S)-quinuclidin-3-yl((R)-5-(3-chloro-4-propoxyphenyl)-2,2-dimethyl-2,3-dihydro-1H-inden-1-yl)carbamate] the same measures were 8.02, 1280 ng/g, 160 ng/mL and 0.0287 µM.
In the same order, the values of `CCCOc1ccc(-c2ccc3c(c2)CC(C)(C)[C@H]3NC(=O)O[C@@H]2CN3CCC2CC3)cc1F` [Example 20, (S)-quinuclidin-3-yl((R)-5-(3-fluoro-4-propoxyphenyl)-2,2-dimethyl-2,3-dihydro-1H-inden-1-yl)carbamate] are 7.12, 4070 ng/g, 578 ng/mL and 0.0184 µM.
For the compound `CC(C)Oc1ccc(-c2ccc3c(c2)CC(C)(C)[C@H]3NC(=O)O[C@@H]2CN3CCC2CC3)cc1F` [Example 21, (S)-quinuclidin-3-yl((R)-5-(3-fluoro-4-isopropoxyphenyl)-2,2-dimethyl-2,3-dihydro-1H-inden-1-yl)carbamate], in series [1] (dose 30 mg/kg), the Kp at 4 h was determined as 6.48. For the same compound, the concentration at 4 h in series [1] (setting [3]) worked out at 9510 ng/g; in series [1] (setting [4]), 1480 ng/mL. In series [2], this compound yielded an IC50 of 0.0209 µM.
In the case of `CCOc1c(C)cc(-c2ccc3c(c2)CC(C)(C)[C@H]3NC(=O)O[C@@H]2CN3CCC2CC3)cc1C` [Example 22, (S)-quinuclidin-3-yl((R)-5-(4-ethoxy-3,5-dimethylphenyl)-2,2-dimethyl-2,3-dihydro-1H-inden-1-yl)carbamate], the Kp at 4 h in series [1] (dose 30 mg/kg) came out at 3.37. Also, the concentration at 4 h in series [1] (setting [3]) came to 4400 ng/g; in series [1] (setting [4]), 1320 ng/mL. In addition, in series [2], half-maximal inhibition (IC50) required 0.0381 µM.
As for `COc1ccc(-c2ccc3c(c2)CC(C)(C)[C@H]3NC(=O)O[C@@H]2CN3CCC2CC3)c(Cl)c1` [Example 43, (S)-quinuclidin-3-yl((R)-5-(2-chloro-4-methoxyphenyl)-2,2-dimethyl-2,3-dihydro-1H-inden-1-yl)carbamate], the Kp at 4 h in series [1] (dose 30 mg/kg) was determined as 3.65. Further, the results for the concentration at 4 h in series [1] (setting [3]) and in series [1] (setting [4]) were 5720 ng/g and 1560 ng/mL, respectively. The compound further had an IC50 in series [2] of 0.0064 µM.
Regarding `Cc1ccc(-c2ccc3c(c2)CC(C)(C)[C@H]3NC(=O)O[C@@H]2CN3CCC2CC3)cc1Cl` [Example 45, (S)-quinuclidin-3-yl((R)-5-(3-chloro-4-methylphenyl)-2,2-dimethyl-2,3-dihydro-1H-inden-1-yl)carbamate], the Kp at 4 h in series [1] (dose 30 mg/kg) is 9.09. The concentration at 4 h in series [1] (setting [3]) was determined as 7820 ng/g; in series [1] (setting [4]), 858 ng/mL. Also, the half-maximal inhibitory concentration (IC50) in series [2] turned out to be 0.006 µM.
In the same order, the values of `CC(C)COc1ccc(-c2cc3c(cc2F)[C@H](NC(=O)O[C@@H]2CN4CCC2CC4)C(C)(C)C3)cc1` [Example 57, (S)-quinuclidin-3-yl((R)-6-fluoro-5-(4-isobutoxyphenyl)-2,2-dimethyl-2,3-dihydro-1H-inden-1-yl)carbamate] are 20.9, 1330 ng/g, 63.7 ng/mL and 0.00099 µM.
Consider `CC(C)c1ccc(-c2cc3c(cc2F)[C@H](NC(=O)O[C@@H]2CN4CCC2CC4)C(C)(C)C3)cc1` [Example 59, (S)-quinuclidin-3-yl((R)-6-fluoro-5-(4-isopropylphenyl)-2,2-dimethyl-2,3-dihydro-1H-inden-1-yl)carbamate], for which, in series [1] (dose 30 mg/kg), the Kp at 4 h stood at 9.7. Also, the concentration at 4 h worked out at 4120 ng/g in series [1] (setting [3]) and 436 ng/mL in series [1] (setting [4]). The compound also displayed an IC50 in series [2] of 0.0043 µM.
Turning to `CCCc1ccc(-c2cc3c(cc2F)[C@H](NC(=O)O[C@@H]2CN4CCC2CC4)C(C)(C)C3)cc1` [Example 61, (S)-quinuclidin-3-yl((R)-6-fluoro-2,2-dimethyl-5-(4-propylphenyl)-2,3-dihydro-1H-inden-1-yl)carbamate], the Kp at 4 h in series [1] (dose 30 mg/kg) is 11.1. Further, the concentration at 4 h in series [1] (setting [3]) stood at 4880 ng/g; in series [1] (setting [4]) it was 439 ng/mL. This compound returned an IC50 in series [2] of 0.0106 µM.
In the same order, the values of `CC(C)Cc1ccc(-c2cc3c(cc2F)[C@H](NC(=O)O[C@@H]2CN4CCC2CC4)C(C)(C)C3)cc1` [Example 62, (S)-quinuclidin-3-yl((R)-6-fluoro-5-(4-isobutylphenyl)-2,2-dimethyl-2,3-dihydro-1H-inden-1-yl)carbamate] are 6.83, 2960 ng/g, 434 ng/mL and 0.0034 µM.
With `COc1c(C)cc(-c2cc3c(cc2F)[C@H](NC(=O)O[C@@H]2CN4CCC2CC4)C(C)(C)C3)cc1C` [Example 63, (S)-quinuclidin-3-yl((R)-6-fluoro-5-(4-methoxy-3,5-dimethylphenyl)-2,2-dimethyl-2,3-dihydro-1H-inden-1-yl)carbamate], the Kp at 4 h in series [1] (dose 30 mg/kg) is 1.4. In addition, the concentration at 4 h in series [1] (setting [3]) was found to be 1360 ng/g; in series [1] (setting [4]), 974 ng/mL. Further, in series [2], the 50% inhibitory concentration (IC50) stood at 0.0206 µM.
On to `Cc1cc(-c2cc3c(cc2F)[C@H](NC(=O)O[C@@H]2CN4CCC2CC4)C(C)(C)C3)cc(C)c1OC(C)C` [Example 65, (S)-quinuclidin-3-yl((R)-6-fluoro-5-(4-isopropoxy-3,5-dimethylphenyl)-2,2-dimethyl-2,3-dihydro-1H-inden-1-yl)carbamate], for which, in series [1] (dose 30 mg/kg), the Kp at 4 h worked out at 5.04. Also, the concentration at 4 h in series [1] (setting [3]) came out at 4080 ng/g; in series [1] (setting [4]), 811 ng/mL. This compound yielded an IC50 in series [2] of 0.0088 µM.
For the compound `CC(C)Oc1ccc(-c2cc3c(cc2F)[C@H](NC(=O)O[C@@H]2CN4CCC2CC4)C(C)(C)C3)cc1Cl` [Example 66, (S)-quinuclidin-3-yl((R)-5-(3-chloro-4-isopropoxyphenyl)-6-fluoro-2,2-dimethyl-2,3-dihydro-1H-inden-1-yl)carbamate], the Kp at 4 h in series [1] (dose 30 mg/kg) is 7.85. Further, the concentration at 4 h stood at 5490 ng/g in series [1] (setting [3]) and 719 ng/mL in series [1] (setting [4]). Also, the IC50 in series [2] was 0.00504 µM.
Consider `COc1ccc(-c2cc3c(cc2F)[C@H](NC(=O)O[C@@H]2CN4CCC2CC4)C(C)(C)C3)c(F)c1` [Example 67, (S)-quinuclidin-3-yl((R)-6-fluoro-5-(2-fluoro-4-methoxyphenyl)-2,2-dimethyl-2,3-dihydro-1H-inden-1-yl)carbamate], for which the Kp at 4 h in series [1] (dose 30 mg/kg) stood at 4.11. Moreover, the concentration at 4 h in series [1] (setting [3]) was determined as 3670 ng/g; in series [1] (setting [4]) it was 903 ng/mL. Further, it took 0.0053 µM to reach half-maximal inhibition in series [2] (IC50).
For `CC(C)Oc1ccc(-c2cc3c(cc2F)[C@H](NC(=O)O[C@@H]2CN4CCC2CC4)C(C)(C)C3)cc1` [Example 68, (S)-quinuclidin-3-yl((R)-6-fluoro-5-(4-isopropoxyphenyl)-2,2-dimethyl-2,3-dihydro-1H-inden-1-yl)carbamate] the same measures were 9.77, 13500 ng/g, 1420 ng/mL and 0.00154 µM.
